Measured values as given in US8895585B2, “Nicotinamide derivative or salt thereof” (FUJIFILM Corporation, priority 2010, dated 2014).

Legend:
[1] = molecular target: T1, glutathione S-transferase (GST)-fused full-length human Syk protein (Homo sapiens, UniProt P43405); test: Syk enzyme assay; type: biochemical; conditions: Syk enzyme assay, Test Example 1; read-out: IC50 of Syk-inhibitory activity
T1 construct: (GST)-fused full-length human Syk protein; GST (glutathione S-transferase); purchased Carna Biosciences
Procedure, shortened: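 GST-tagged full-length human Syk (baculovirus) preincubated with compound 15 min at room temperature (pH 7.0, 10 mM MgCl2), then reacted 40 min with 0.4 μM biotinylated peptide substrate and 27 μM ATP (final). Phosphorylation read by HTRF (615/665 nm) after EDTA stop; IC50 reported.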

THP-1 cells = test: TNFα generation assay; type: cell-based, human; conditions: Homo sapiens, THP-1, THP-1 cells; Table 22; read-out: IC50 in TNFα generation assay
Procedure, shortened: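 THP-1 cells differentiated to macrophage-like cells with 10 ng/ml IFN-γ for 2 days, preincubated with compound 30 min at room temperature, then cultured 7 h on plates coated with human IgG (10 μg/ml). Secreted TNFα measured by ELISA or AlphaLISA.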

Compound | IC50 [1] | IC50 (THP-1 cells)
CC[C@@H](Nc1nc(Nc2ccc(N3CCOCC3)nc2)c(C(N)=O)cc1F)[C@H](C)N [Example 006-265, 6-(((2S,3R)-2-aminopentan-3-yl)amino)-5-fluoro-2-((6-morpholinopyridin-3-yl)amino)nicotinamide] | 10 to 50 nM | 130 to 200 nM
CC[C@@H](Nc1nc(Nc2ccnc(OC)c2)c(C(N)=O)cc1F)[C@H](C)N [Example 006-266, 6-(((2S,3R)-2-aminopentan-3-yl)amino)-5-fluoro-2-((2-methoxypyridin-4-yl)amino)nicotinamide] | < 10 nM | < 65 nM
CC[C@@H](Nc1nc(Nc2cc(OC)nc(OC)c2)c(C(N)=O)cc1F)[C@H](C)N [Example 006-267, 6-(((2S,3R)-2-aminopentan-3-yl)amino)-2-((2,6-dimethoxypyridin-4-yl)amino)-5-fluoronicotinamide] | < 10 nM | < 65 nM
CC[C@@H](Nc1nc(Nc2cccc3c2cnn3C)c(C(N)=O)cc1F)[C@H](C)N [Example 006-268, 6-(((2S,3R)-2-aminopentan-3-yl)amino)-5-fluoro-2-((1-methyl-1H-indazol-4-yl)amino)nicotinamide] | < 10 nM | < 65 nM
CC[C@@H](Nc1nc(Nc2cncc(F)c2)c(C(N)=O)cc1F)[C@H](C)N [Example 006-269, 6-(((2S,3R)-2-aminopentan-3-yl)amino)-5-fluoro-2-((5-fluoropyridin-3-yl)amino)nicotinamide] | 10 to 50 nM | 65 to 130 nM
CC[C@@H](Nc1nc(Nc2ccc3nc(OCCOC)ccc3c2)c(C(N)=O)cc1F)[C@H](C)N [Example 006-271, 6-(((2S,3R)-2-aminopentan-3-yl)amino)-5-fluoro-2-((2-(2-methoxyethoxy)quinolin-6-yl)amino)nicotinamide] | < 10 nM | < 65 nM
CC[C@@H](Nc1nc(Nc2cnc(C)c(C3CC3)c2)c(C(N)=O)cc1F)[C@H](C)N [Example 006-272, 6-(((2S,3R)-2-aminopentan-3-yl)amino)-2-((5-cyclopropyl-6-methylpyridin-3-yl)amino)-5-fluoronicotinamide] | 10 to 50 nM | 65 to 130 nM
CCCC[C@H](CN)Nc1nc(Nc2ccc3ncccc3c2)c(C(N)=O)cc1F [Example 006-274, (R)-6-((1-aminohexan-2-yl)amino)-5-fluoro-2-(quinolin-6-ylamino)nicotinamide] | < 10 nM | 65 to 130 nM
C[C@H](N)[C@@H](C)Nc1nc(Nc2ccc3ncccc3c2)c(C(N)=O)cc1F [Example 006-275, 6-(((2R,3S)-3-aminobutan-2-yl)amino)-5-fluoro-2-((quinolin-6-yl)amino)nicotinamide] | < 10 nM | < 65 nM
CC[C@@H](Nc1nc(Nc2cncc(-c3cccc(OC)c3)c2)c(C(N)=O)cc1F)[C@H](C)N [Example 006-276, 6-(((2S,3R)-2-aminopentan-3-yl)amino)-5-fluoro-2-((5-(3-methoxyphenyl)pyridin-3-yl)amino)nicotinamide] | < 10 nM | < 65 nM
CC[C@@H](Nc1nc(Nc2cncc(-c3ccc(OC)cc3)c2)c(C(N)=O)cc1F)[C@H](C)N [Example 006-277, 6-(((2S,3R)-2-aminopentan-3-yl)amino)-5-fluoro-2-((5-(4-methoxyphenyl)pyridin-3-yl)amino)nicotinamide] | < 10 nM | 65 to 130 nM
CC[C@@H](Nc1nc(Nc2cncc(-c3ccc(OC)cc3F)c2)c(C(N)=O)cc1F)[C@H](C)N [Example 006-279, 6-(((2S,3R)-2-aminopentan-3-yl)amino)-5-fluoro-2-((5-(2-fluoro-4-methoxyphenyl)pyridin-3-yl)amino)nicotinamide] | < 10 nM | 65 to 130 nM
CC[C@@H](Nc1nc(Nc2ccnc(-c3cccc(OC)c3F)c2)c(C(N)=O)cc1F)[C@H](C)N [Example 006-281, 6-(((2S,3R)-2-aminopentan-3-yl)amino)-5-fluoro-2-((2-(2-fluoro-3-methoxyphenyl)pyridin-4-yl)amino)nicotinamide] | < 10 nM | < 65 nM
Cn1ncc2cc(Nc3nc(N[C@@H](CN)CC4CC4)c(F)cc3C(N)=O)ccc21 [Example 006-282, (R)-6-((1-amino-3-cyclopropylpropan-2-yl)amino)-5-fluoro-2-((1-methyl-1H-indazol-5-yl)amino)nicotinamide] | < 10 nM | < 65 nM
CCC[C@@H](Nc1nc(Nc2cncc(-c3cccc(OC)c3)c2)c(C(N)=O)cc1F)[C@H](C)N [Example 006-284, 6-(((2S,3R)-2-aminohexan-3-yl)amino)-5-fluoro-2-((5-(3-methoxyphenyl)pyridin-3-yl)amino)nicotinamide] | < 10 nM | 130 to 200 nM
CCC[C@@H](Nc1nc(Nc2cncc(-c3ccc(OC)cc3)c2)c(C(N)=O)cc1F)[C@H](C)N [Example 006-285, 6-(((2S,3R)-2-aminohexan-3-yl)amino)-5-fluoro-2-((5-(4-methoxyphenyl)pyridin-3-yl)amino)nicotinamide] | < 10 nM | 65 to 130 nM

Compound | IC50 [1] | IC50 (THP-1 cells)
CCC[C@@H](Nc1nc(Nc2cncc(-c3cccc(OC)c3F)c2)c(C(N)=O)cc1F)[C@H](C)N [Example 006-286, 6-(((2S,3R)-2-aminohexan-3-yl)amino)-5-fluoro-2-((5-(2-fluoro-3-methoxyphenyl)pyridin-3-yl)amino)nicotinamide] | < 10 nM | < 65 nM
CCC[C@@H](Nc1nc(Nc2cncc(-c3ccc(OC)cc3F)c2)c(C(N)=O)cc1F)[C@H](C)N [Example 006-287, 6-(((2S,3R)-2-aminohexan-3-yl)amino)-5-fluoro-2-((5-(2-fluoro-4-methoxyphenyl)pyridin-3-yl)amino)nicotinamide] | < 10 nM | 65 to 130 nM
CCC[C@@H](Nc1nc(Nc2cncc(-c3cc(OC)ccc3F)c2)c(C(N)=O)cc1F)[C@H](C)N [Example 006-288] | < 10 nM | 130 to 200 nM
CCC[C@@H](Nc1nc(Nc2ccnc(-c3cccc(OC)c3F)c2)c(C(N)=O)cc1F)[C@H](C)N [Example 006-289, 6-(((2S,3R)-2-aminohexan-3-yl)amino)-5-fluoro-2-((2-(2-fluoro-3-methoxyphenyl)pyridin-4-yl)amino)nicotinamide] | < 10 nM | < 65 nM
CCC[C@@H](Nc1nc(Nc2ccnc(-c3cc(OC)ccc3F)c2)c(C(N)=O)cc1F)[C@H](C)N [Example 006-290, 6-(((2S,3R)-2-aminohexan-3-yl)amino)-5-fluoro-2-((2-(2-fluoro-5-methoxyphenyl)pyridin-4-yl)amino)nicotinamide] | < 10 nM | < 65 nM
COc1ccc(-c2cncc(Nc3nc(N[C@@H](CN)CC(C)C)c(F)cc3C(N)=O)c2)cc1 [Example 006-291, (R)-6-((1-amino-4-methylpentan-2-yl)amino)-5-fluoro-2-((5-(4-methoxyphenyl)pyridin-3-yl)amino)nicotinamide] | 10 to 50 nM | 130 to 200 nM
CCCC[C@H](CN)Nc1nc(Nc2cnc3cc(OC)ccc3c2)c(C(N)=O)cc1F [Example 006-293, (R)-6-((1-aminohexan-2-yl)amino)-5-fluoro-2-((7-methoxyquinolin-3-yl)amino)nicotinamide] | < 10 nM | 65 to 130 nM
CCCC[C@H](CN)Nc1nc(Nc2cncc(-n3cccn3)c2)c(C(N)=O)cc1F [Example 006-294, (R)-2-((5-(1H-pyrazol-1-yl)pyridin-3-yl)amino)-6-((1-aminohexan-2-yl)amino)-5-fluoronicotinamide] | 10 to 50 nM | 65 to 130 nM
CCCC[C@H](CN)Nc1nc(Nc2cncc(-c3ccccc3)c2)c(C(N)=O)cc1F [Example 006-295, (R)-6-((1-aminohexan-2-yl)amino)-5-fluoro-2-((5-phenylpyridin-3-yl)amino)nicotinamide] | 10 to 50 nM | 130 to 200 nM
CCC[C@@H](Nc1nc(Nc2cnc(C)c(C)c2)c(C(N)=O)cc1F)[C@H](C)N [Example 006-296, 6-(((2S,3R)-2-aminohexan-3-yl)amino)-2-((5,6-dimethylpyridin-3-yl)amino)-5-fluoronicotinamide] | < 10 nM | 65 to 130 nM
CCC[C@@H](Nc1nc(Nc2cncc(Cl)c2)c(C(N)=O)cc1F)[C@H](C)N [Example 006-297, 6-(((2S,3R)-2-aminohexan-3-yl)amino)-2-((5-chloropyridin-3-yl)amino)-5-fluoronicotinamide] | < 10 nM | 65 to 130 nM
CCC[C@@H](Nc1nc(Nc2cncc(-n3nccn3)c2)c(C(N)=O)cc1F)[C@H](C)N [Example 006-298, 2-((5-(2H-1,2,3-triazol-2-yl)pyridin-3-yl)amino)-6-(((2S,3R)-2-aminohexan-3-yl)amino)-5-fluoronicotinamide] | < 10 nM | < 65 nM
CCC[C@@H](Nc1nc(Nc2ccnc(-n3ccnn3)c2)c(C(N)=O)cc1F)[C@H](C)N [Example 006-299, 2-((2-(1H-1,2,3-triazol-1-yl)pyridin-4-yl)amino)-6-(((2S,3R)-2-aminohexan-3-yl)amino)-5-fluoronicotinamide] | < 10 nM | < 65 nM
CCC[C@@H](Nc1nc(Nc2ccnc(-n3cncn3)c2)c(C(N)=O)cc1F)[C@H](C)N [Example 006-300, 2-((2-(1H-1,2,4-triazol-1-yl)pyridin-4-yl)amino)-6-(((2S,3R)-2-aminohexan-3-yl)amino)-5-fluoronicotinamide] | < 10 nM | < 65 nM
CCC[C@@H](Nc1nc(Nc2ccc(C)nc2)c(C(N)=O)cc1F)[C@H](C)N [Example 006-302, 6-(((2S,3R)-2-aminohexan-3-yl)amino)-5-fluoro-2-((6-methylpyridin-3-yl)amino)nicotinamide] | 10 to 50 nM | 130 to 200 nM
